Measurements taken from US11642346B2, “Combination therapy for treating cancer” (Epizyme, Inc., priority 2017, dated 2023).

How the values were obtained:
[1] = system: A204 cells; assay: Combination of tazemetostat with other agents, co-treatment model, luminescent cell viability (ATP) assay; format: cell-based; conditions: grown for seven days
From the text: (§1) Proliferation data was read for luminescence.

[2] = system: G401 cells; assay: as above; format: cell-based; conditions: grown for seven days
From the text: as §1

[3] = system: AT/RT and MRT cell lines; assay: In vitro combination studies of tazemetostat in a panel of AT/RT and MRT cell lines; format: cell-based; conditions: cell line models of AT/RT and MRT
[4] = system: BT-12 cells; assay: Combination of tazemetostat with other agents, pretreatment model, luminescent cell viability (ATP) assay; format: cell-based; conditions: pretreatment model: 4 days tazemetostat, then 4 days agent alone or with tazemetostat, synergy by Loewe Volume, Fa-CI plots
Description: (§2) Proliferation data was read for luminescence. Calculations of synergy were performed using the Loewe Volume (Chalice Software) and Fa-CI plots were generated with Calcusyn.

[5] = system: CHLA-266 cells; assay: as above; format: cell-based; conditions: pretreatment model: 4 days tazemetostat, then 4 days agent alone or with tazemetostat, synergy by Loewe Volume, Fa-CI plots
Description: as §2

[6] = system: MRT; conditions: preclinical models of MRT; cited from earlier work
[7] = system: atypical teratoid rhabdoid tumor (AT/RT) cells; assay: Tazemetostat pre-treatment followed by X-ray irradiation, 11 day clonogenic assay; format: cell-based; conditions: primed seven days, X-ray 2 Gy
[8] = system: BT-12 cells; assay: Antiproliferative activity of tazemetostat, 2D culture, luminescent cell viability assay; format: cell-based; conditions: 0.08-10 μM, days 4, 6, 7, 11 and 15
Description: (§3) Cell viability was measured in a luminescent cell viability assay and is represented by luminescence counts.

[9] = system: CHLA-266 cells; assay: as above; format: cell-based; conditions: 0.08-10 μM, days 4, 6, 7, 11 and 15
Description: as §3

SMILES	Combination treatment with tazemetostat, A204 [1]	Combination treatment with tazemetostat, G401 [2]	Antiproliferative effect of combination with tazemetostat [3]	Combination treatment with tazemetostat, BT-12 [4]	Combination treatment with tazemetostat, CHLA-266 [5]	further results
CC[C@@]1(O)C(=O)OCc2c1cc1n(c2=O)Cc2cc3c(CN(C)C)c(O)ccc3nc2-1 [Topotecan]	Additive	Synergy	synergistic interactions	Synergy	Synergy	–
Nc1ccn([C@@H]2O[C@H](CO)[C@@H](O)[C@@H]2O)c(=O)n1 [Cytarabine/Ara-C, Cytarabine]	Additive	Additive	–	Synergy	Additive	–
COc1cc([C@@H]2c3cc4c(cc3[C@@H](O[C@@H]3O[C@@H]5CO[C@@H](C)O[C@H]5[C@H](O)[C@H]3O)[C@H]3COC(=O)[C@H]23)OCO4)cc(OC)c1O [Etoposide]	Additive	Synergy	–	Additive	Additive	–
CCN(c1cc(-c2ccc(CN3CCOCC3)cc2)cc(C(=O)NCc2c(C)cc(C)[nH]c2=O)c1C)C1CCOCC1 [tazemetostat]	–	–	–	–	–	Tumor response to tazemetostat treatment [6]: robust tumor regressions; Clonogenic survival, tazemetostat priming prior to X-ray irradiation [7]: reduction in clonogenic survival; Cell death / cell viability [8]: Time and dose dependent increases in cell death; Cell death / cell viability [9]: Time and dose dependent increases in cell death
CC[C@]1(O)C[C@H]2CN(CCc3c([nH]c4ccccc34)[C@@](C(=O)OC)(c3cc4c(cc3OC)N(C=O)[C@H]3[C@@](O)(C(=O)OC)[C@H](OC(C)=O)[C@]5(CC)C=CCN6CC[C@]43[C@@H]65)C2)C1 [Vincristine]	Synergy	–	Synergistic activity	Synergy	Synergy	Combination treatment with tazemetostat, A204 ([1]; listed as vincristine): synergy; Combination treatment with tazemetostat, G401 ([2]; listed as vincristine): synergy; Combination treatment with tazemetostat, BT-12 ([4]; listed as vincristine): synergy; Combination treatment with tazemetostat, CHLA-266 ([5]; listed as vincristine): synergy
Nc1ccccc1NC(=O)c1ccc(CNC(=O)OCc2cccnc2)cc1 [Entinostat]	Additive	Synergy	enhanced the antiproliferative effect	Synergy	Synergy	Combination treatment with tazemetostat, A204 ([1]; listed as entinostat): synergy; Combination treatment with tazemetostat, G401 ([2]; listed as entinostat): synergy; Combination treatment with tazemetostat, BT-12 ([4]; listed as entinostat): synergy; Combination treatment with tazemetostat, CHLA-266 ([5]; listed as entinostat): synergy
COc1cc(Nc2ncc3c(n2)-c2ccc(Cl)cc2C(c2c(F)cccc2OC)=NC3)ccc1C(=O)O [Alisertib]	Additive	Additive	Synergistic activity	Synergy	Synergy	Combination treatment with tazemetostat, A204 ([1]; listed as alisertib): synergy; Combination treatment with tazemetostat, G401 ([2]; listed as alisertib): synergy; Combination treatment with tazemetostat, BT-12 ([4]; listed as alisertib): synergy; Combination treatment with tazemetostat, CHLA-266 ([5]; listed as alisertib): synergy
CO[C@H]1C[C@@H]2CC[C@@H](C)[C@@](O)(O2)C(=O)C(=O)N2CCCC[C@H]2C(=O)O[C@H]([C@H](C)C[C@@H]2CC[C@@H](OCCO)[C@H](OC)C2)CC(=O)[C@H](C)/C=C(\C)[C@@H](O)[C@@H](OC)C(=O)[C@H](C)C[C@H](C)/C=C/C=C/C=C/1C [Everolimus]	Additive	Additive	–	Synergy	Synergy	–
N.N.O=C([O-])C1(C(=O)[O-])CCC1.[Pt+2] [Carboplatin]	Additive	–	–	Additive	Additive	–
COc1cccc2c1C(=O)c1c(O)c3c(c(O)c1C2=O)C[C@@](O)(C(=O)CO)C[C@@H]3O[C@H]1C[C@H](N)[C@H](O)[C@H](C)O1 [Doxorubicin]	Additive	Additive	Synergistic activity	Synergy	Synergy	Combination treatment with tazemetostat, A204 ([1]; listed as doxorubicin): synergy; Combination treatment with tazemetostat, G401 ([2]; listed as doxorubicin): synergy; Combination treatment with tazemetostat, BT-12 ([4]; listed as doxorubicin): synergy; Combination treatment with tazemetostat, CHLA-266 ([5]; listed as doxorubicin): synergy
